Laboratory results taken from ChEMBL document CHEMBL5223138, “Lead identification of novel tetrahydroimidazo[1,2-a]pyridine-5-carboxylic acid derivative as a potent heparanase-1 inhibitor” (Bioorg Med Chem Lett, 2023).
pIC50, pKi: −log10 of the molar value.

What was measured:
Heparanase = biological target: T1, Heparanase (Homo sapiens, UniProt Q9Y251); experiment: Inhibition of Heparanase-1 (unknown origin) by HTRF method
T1 sequence (Q9Y251 whole entry): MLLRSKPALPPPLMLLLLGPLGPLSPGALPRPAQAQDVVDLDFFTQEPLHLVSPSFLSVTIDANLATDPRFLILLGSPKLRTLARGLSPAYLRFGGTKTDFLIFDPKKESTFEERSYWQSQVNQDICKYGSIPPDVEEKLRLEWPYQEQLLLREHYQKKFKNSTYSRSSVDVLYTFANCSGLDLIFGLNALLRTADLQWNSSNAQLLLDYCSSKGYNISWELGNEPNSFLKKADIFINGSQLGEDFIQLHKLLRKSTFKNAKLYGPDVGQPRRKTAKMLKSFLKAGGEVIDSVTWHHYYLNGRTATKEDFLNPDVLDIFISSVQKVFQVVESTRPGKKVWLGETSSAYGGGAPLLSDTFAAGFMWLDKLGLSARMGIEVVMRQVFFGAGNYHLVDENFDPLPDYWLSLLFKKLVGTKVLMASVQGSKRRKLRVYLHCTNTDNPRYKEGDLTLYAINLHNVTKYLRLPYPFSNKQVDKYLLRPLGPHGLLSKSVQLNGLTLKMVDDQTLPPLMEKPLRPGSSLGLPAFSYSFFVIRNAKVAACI

[1] = Binding affinity to bovine liver beta-glucuronidase; set-up: species or system Bos taurus

Row | SMILES | pIC50 (Heparanase) | pKi [1]
1 | CCCCCCCCCCCCCCCc1cc(O[C@@H]2O[C@H](C(=O)O)[C@@H](O)[C@H](O)[C@H]2O)cc(O)c1C(=O)Oc1cc(C)c(C(=O)O)c(O)c1 | 5.04 | 
2 | O=C(O)[C@@H]1[C@@H](O)[C@H](O)[C@@H](O)c2nccn21 |  | 7.92
3 | O=C(O)[C@@H]1[C@@H](O)[C@H](O)[C@@H](O)c2nc(CCc3ccc(C(F)(F)F)cc3)cn21 | 5.47 | 
